Laboratory results reported in patent US20090061022A1, “Pharmaceutical composition comprising arsenite for the treatment of malignancy” (priority 2004, published 2009).
Marks after values point to notes of the source that are not given here.

Tested on: ALL-SCID 4
Assay: Anticancer activity in human leukemia model ALL-SCID 4
Conditions: for BW loss % (day) / Drug-related deaths: days 34-54
From the text: Anticancer activity of the sodium meta-arsenite and arsenic trioxide against two human paediatric acute lymphoblastic leukemia (ALL) models in vivo, ALL-SCID 4 was investigated to compare.
Male NOD/SCID mice (deficient in T and B lymphocytes, NK cells and functional macrophages) were transplanted s.c. on day 0 with fragments of ALL-SCID 4 cancers, which were obtained from mice used for routine passage of the cancers. Mice were randomized to the scheduled treatment groups.
Sodium meta-arsenite was administered orally at 2, 4 and 6 mg/kg/day (⅓ MTD, ⅔ MTD and MTD) once every day from day 34-54 after transplantation. The vehicle control (5% glucose in water) was administered i.p. (10 ml/kg).
Sodium meta-arsenite was dissolved in ready-to-use sterile infusion (5% (w/v) glucose in aqua injectabila). Arsenic trioxide was dissolved in 25 mM NaOH then dissolved in 5% glucose in aqua injectabila. The solutions were prepared freshly on the day of therapy for each administration.

O=[As][O-].[Na+] [Sodium meta-arsenite, sodium meta-arsenite]
BW loss % (day) (2 mg/kg p.o.): 0 (44) % | Drug-related deaths (2 mg/kg p.o.): 0/8 | T/C % (2 mg/kg p.o., days 34-54 (⅓ MTD)): 38* % | T/C % (2 mg/kg p.o., days 34-54 (⅓ MTD), listed as sodium meta-arsenite): 38% | BW loss % (day) (4 mg/kg p.o.): +5 (44) % | Drug-related deaths (4 mg/kg p.o.): 0/8 | T/C % (4 mg/kg p.o., days 34-54 (⅔ MTD)): 55* % | T/C % (4 mg/kg p.o., days 34-54 (⅔ MTD), listed as sodium meta-arsenite): 55% | BW loss % (day) (6 mg/kg p.o.): +5 (44) % | Drug-related deaths (6 mg/kg p.o.): 0/8 | T/C % (6 mg/kg p.o., days 34-54 (MTD)): 48* % | T/C % (6 mg/kg p.o., days 34-54 (MTD), listed as sodium meta-arsenite): 48% | MTD (small dose finding studies prior to the ALL-SCID 4 study): 6 mg/kg/day | Body weight loss and lethality (treated groups 2, 4, 6 mg/kg/day p.o.): not observed
